From patent US20240308968A1, “FUNGICIDAL SUBSTITUTED HETEROCYCLES” (FMC Corporation, priority 2021, published 2024)

Columns and labels:
Assay type in all cases: in vivo
Settings in all cases: 100 = 100% disease control, 0 = no control
Zymoseptoria tritici = test: Test A: preventive spray on wheat seedlings, wheat leaf blotch disease rating
Text: (§1) General protocol for preparing test suspensions for Tests A-F: the test compounds were first dissolved in acetone in an amount equal to 3% of the final volume and then suspended at the desired concentration (in ppm) in acetone and purified water (50/50 mix by volume) containing 50 to 250 ppm of the surfactant PEG400 (polyhydric alcohol esters). The resulting test suspensions were then used in Tests A-F.
The test solution was sprayed to the point of run-off on wheat seedlings. The following day the seedlings were inoculated with a spore suspension of Zymoseptoria tritici (the causal agent of wheat leaf blotch) and incubated in a saturated atmosphere at 24° C. for 48 h, and then moved to a growth chamber at 20° C. for 17 days, after which time disease ratings were made. […]

Phakopsora pachyrhizi = test: Test D: preventive spray on soybean seedlings, Asian soybean rust disease rating
Text: as §1
The test solution was sprayed to the point of run-off on soybean seedlings. The following day the seedlings were inoculated with a spore suspension of Phakopsora pachyrhizi (the causal agent of Asian soybean rust) and incubated in a saturated atmosphere at 22° C. for 24 h and then moved to a growth chamber at 22° C. for 8 days, after which time visual disease ratings were made.
(§2) The test suspension was sprayed to the point of run-off on tomato seedlings. The following day the seedlings were inoculated with a spore suspension of Alternaria solani (the causal agent of tomato early blight) and incubated in a saturated atmosphere at 27° C. for 48 h, and then moved to a growth chamber at 20° C. for 3 days, after which time visual disease ratings were made. A rating of 100 indicates 100% disease control and a rating of 0 indicates no disease control (relative to the controls). A dash (-) indicates the compound was not tested.

[1] = test system: Puccinia recondita f. sp. Tritici; test: Test B: preventive spray on wheat seedlings, wheat leaf rust disease rating
Text: as §1
The test solution was sprayed to the point of run-off on wheat seedlings. The following day the seedlings were inoculated with a spore suspension of Puccinia recondita f. sp. Tritici (the causal agent of wheat leaf rust) and incubated in a saturated atmosphere at 20° C. for 24 h, and then moved to a growth chamber at 20° C. for 7 days, after which time disease ratings were made.
as §2

[2] = test system: Blumeria graminis f. sp. Tritici; test: Test C: preventive spray on wheat seedlings, wheat powdery mildew disease rating
Text: as §1
The test suspension was sprayed to the point of run-off on wheat seedlings. The following day the seedlings were inoculated with a spore dust of Blumeria graminis f. sp. Tritici, (also known as Erysiphe graminis f. sp. Tritici, the causal agent of wheat powdery mildew) and incubated in a growth chamber at 20° C. for 8 days, after which time visual disease ratings were made.
as §2

Botrytis cinerea = test: Test E: preventive spray on tomato seedlings, tomato Botrytis disease rating
Text: as §1
The test suspension was sprayed to the point of run-off on tomato seedlings. The following day the seedlings were inoculated with a spore suspension of Botrytis cinerea (the causal agent of tomato Botrytis) and incubated in a saturated atmosphere at 20° C. for 48 h, and then moved to a growth chamber at 24° C. for 3 days, after which time visual disease ratings were made.
as §2

Alternaria solani = test: Test F: preventive spray on tomato seedlings, tomato early blight disease rating
Text: as §1, §2

[3] = Zymoseptoria tritici, 456 h, 250 ppm
[4] = Phakopsora pachyrhizi, 216 h, 250 ppm
[5] = Puccinia recondita, 192 h, 250 ppm
[6] = Blumeria graminis, 192 h, 250 ppm
[7] = Botrytis cinerea, 120 h, 250 ppm

SMILES | Test A disease control rating (Zymoseptoria tritici; 50 ppm) | Test D disease control rating (Phakopsora pachyrhizi; 50 ppm) | Test B disease control rating ([1]; 50 ppm) | Test C disease control rating ([2]; 50 ppm) | Test E disease control rating (Botrytis cinerea; 50 ppm) | Test F disease control rating (Alternaria solani; 50 ppm) | further results
COc1cc(OC)cc(-c2nc(C)nc(C)c2-c2ccc(F)cc2Cl)c1 [Compound 44, 5-(2-chloro-4-fluorophenyl)-4-(3,5-dimethoxyphenyl)-2,6-dimethylpyrimidine] |  |  |  |  |  |  | pest or weed control at 250 ppm (Zymoseptoria tritici; [3]): 99%; pest or weed control at 250 ppm (Phakopsora pachyrhizi; [4]): 95%; pest or weed control at 250 ppm [1, 5]: 100%; pest or weed control at 250 ppm [2, 6]: 99%; pest or weed control at 250 ppm (Botrytis cinerea; [7]): 99%; pest or weed control at 250 ppm (Alternaria solani; Alternaria solani, 120 h): 98%
Cc1c(-c2ccc(F)cc2Cl)c(-c2sc(Br)cc2Br)nn(C)c1=O [Compound 16] | 99% | 0% | 68% | 64% | 37% | 0% | 
COc1cc(OC)cc(-c2nc(C)nc(OC)c2-c2ccc(F)cc2Cl)c1 [Compound 58] | 24% | 0% | 0% | 21% | 79% | 0% | 
Cc1c(-c2ccc(F)cc2Cl)c(-c2cc(Br)sc2Br)nn(C)c1=O [Compound 13] | 99% | 0% | 80% | 73% | 90% | 0% | 
COc1ccc(Cl)c(-n2nc(Cl)c(=O)c(Br)c2-c2ccc(F)cc2Cl)c1 [Compound 134] | 100% | 100% | 100% | 86% | 99% | 99% | 
COc1cc(OC)c(Br)c(-c2c(-c3ccc(F)cc3F)noc(=O)c2C)c1 [Compound 63] | 100% | 0% | 100% | 56% | 97% | 0% | 
Cc1cnn(-c2nn(C)c(=O)c(C)c2-c2ccccc2Cl)c1 [Compound 12] | 0% | 17% | 0% | 0% | 0% | 15% | 
COc1cc(OC)cc(-c2ncnc(OC)c2-c2c(F)cc(F)cc2F)c1 [Compound 51] | 0% | 8% | 9% | 0% | 30% | 0% | 
COc1cc(OC)cc(-c2cc(C#N)c(=O)n(N)c2-c2c(F)cc(F)cc2F)c1 [Compound 153] | 0% | 0% | 80% | 0% | 0% | 0% | 
COc1cc(OC)c(Cl)c(-n2nc(N)c(=O)c(C)c2-c2ccc(F)cc2Cl)c1 [Compound 87] | 100% | 100% | 98% | 96% | 96% | 99% | 
COc1cc(OC)c(Cl)c(-c2c(-c3ccc(F)cc3F)noc(=O)c2C)c1 [Compound 62] | 100% | 87% | 99% | 76% | 97% | 0% | 
COc1ccc(Cl)c(-c2nc(C)nc(C)c2-c2ccc(F)cc2Cl)c1 [Compound 50, 5-(2-chloro-4-fluorophenyl)-4-(2-chloro-5-methoxyphenyl)-2,6-dimethylpyrimidine] |  |  |  |  |  |  | pest or weed control at 250 ppm (Zymoseptoria tritici; [3]): 100%; pest or weed control at 250 ppm (Phakopsora pachyrhizi; [4]): 100%; pest or weed control at 250 ppm [1, 5]: 100%; pest or weed control at 250 ppm [2, 6]: 100%; pest or weed control at 250 ppm (Botrytis cinerea; [7]): 99%; pest or weed control at 250 ppm (Alternaria solani; Alternaria solani, 120 h): 100%
CCn1c(-c2ccc(F)cc2Cl)c(-c2cc(OC)ccc2Cl)cc(C#N)c1=O [Compound 159] | 100% | 77% | 100% | 27% | 99% | 94% | 
COc1ccc(-c2c(Cl)c(=O)c(C)nn2-c2cc(OC)ccc2Cl)c(Cl)c1 [Compound 129] | 100% | 99% | 100% | 99% | 98% | 100% | 
COc1cc(OC)c(Cl)c(-c2nc(Cl)nc(C)c2-c2ccc(F)cc2Cl)c1 [Compound 49, 2-chloro-4-(2-chloro-3,5-dimethoxyphenyl)-5-(2-chloro-4-fluorophenyl)-6-methylpyrimidine] |  |  |  |  |  |  | pest or weed control at 250 ppm (Zymoseptoria tritici; [3]): 100%; pest or weed control at 250 ppm (Phakopsora pachyrhizi; [4]): 100%; pest or weed control at 250 ppm [1, 5]: 100%; pest or weed control at 250 ppm [2, 6]: 100%; pest or weed control at 250 ppm (Botrytis cinerea; [7]): 96%; pest or weed control at 250 ppm (Alternaria solani; Alternaria solani, 120 h): 100%
Cc1cnn(-c2nn(C)c(=O)c(C)c2-c2ccc(F)cc2Cl)c1 [Compound 11] | 70% | 0% | 0% | 97% | 91% | 24% | 
COc1ccc(Cl)c(-n2nc(Br)c(=O)c(Cl)c2-c2ccc(F)cc2Cl)c1 [Compound 101] | 98% | 99% | 99% | 89% | 98% | 98% | 
COc1ccc(Cl)c(-n2nc(C)c(=O)c(Cl)c2-c2ccc(F)cc2Cl)c1 [Compound 123, 5-chloro-1-(2-chloro-5-methoxyphenyl)-6-(2-chloro-4-fluorophenyl)-3-methyl-4(1)-pyridazinone] | 100% | 100% | 100% | 100% | 99% | 100% | 
COC(=O)c1nn(-c2cc(OC)cc(OC)c2)c(-c2ccc(F)cc2F)c(C)c1=O [Compound 24] | 8% | 0% | 0% | 0% | 0% | 0% | 
COc1cc(OC)c(Cl)c(-n2c(-c3ccc(F)cc3Cl)c(Cl)c(=O)n(C)c2=O)c1 [Compound 35, 5-chloro-1-(2-chloro-3,5-dimethoxyphenyl)-6-(2-chloro-4-fluorophenyl)-3-methyl-2,4(1H,3H)-pyrimidinedione] |  |  |  |  |  |  | pest or weed control at 50 ppm (Zymoseptoria tritici; Zymoseptoria tritici, 456 h, 50 ppm): 100%; pest or weed control at 50 ppm (Phakopsora pachyrhizi; Phakopsora pachyrhizi, 216 h, 50 ppm): 91%; pest or weed control at 50 ppm ([1]; Puccinia recondita, 192 h, 50 ppm): 100%; pest or weed control at 50 ppm ([2]; Blumeria graminis, 192 h, 50 ppm): 98%; pest or weed control at 50 ppm (Botrytis cinerea; Botrytis cinerea, 120 h, 50 ppm): 94%; pest or weed control at 50 ppm (Alternaria solani; Alternaria solani, 120 h, 50 ppm): 0%
COc1cc(-c2cc(C#N)c(=O)n(C)c2-c2ccc(F)cc2Cl)ccc1Cl [Compound 160] |  |  |  |  |  |  | Test A disease control rating (Zymoseptoria tritici; 250 ppm): 46%; Test D disease control rating (Phakopsora pachyrhizi; 250 ppm): 0%; Test B disease control rating ([1]; 250 ppm): 80%; Test C disease control rating ([2]; 250 ppm): 0%; Test E disease control rating (Botrytis cinerea; 250 ppm): 94%
